# From US20260174786A1, “A NITROGEN-CONTAINING SPIROCYCLIC COMPOUND, PHARMACEUTICAL COMPOSITION AND USE THEREOF” (Prime Gene Therapeutics Co., Ltd., priority 2022, published 2026)
# Molecular target: T1, hTRPV3 (Homo sapiens, UniProt Q8NET8)
# T1 construct: expressed in transfected cells; host or cells: HEK-293
# T1 sequence (Q8NET8 1-790): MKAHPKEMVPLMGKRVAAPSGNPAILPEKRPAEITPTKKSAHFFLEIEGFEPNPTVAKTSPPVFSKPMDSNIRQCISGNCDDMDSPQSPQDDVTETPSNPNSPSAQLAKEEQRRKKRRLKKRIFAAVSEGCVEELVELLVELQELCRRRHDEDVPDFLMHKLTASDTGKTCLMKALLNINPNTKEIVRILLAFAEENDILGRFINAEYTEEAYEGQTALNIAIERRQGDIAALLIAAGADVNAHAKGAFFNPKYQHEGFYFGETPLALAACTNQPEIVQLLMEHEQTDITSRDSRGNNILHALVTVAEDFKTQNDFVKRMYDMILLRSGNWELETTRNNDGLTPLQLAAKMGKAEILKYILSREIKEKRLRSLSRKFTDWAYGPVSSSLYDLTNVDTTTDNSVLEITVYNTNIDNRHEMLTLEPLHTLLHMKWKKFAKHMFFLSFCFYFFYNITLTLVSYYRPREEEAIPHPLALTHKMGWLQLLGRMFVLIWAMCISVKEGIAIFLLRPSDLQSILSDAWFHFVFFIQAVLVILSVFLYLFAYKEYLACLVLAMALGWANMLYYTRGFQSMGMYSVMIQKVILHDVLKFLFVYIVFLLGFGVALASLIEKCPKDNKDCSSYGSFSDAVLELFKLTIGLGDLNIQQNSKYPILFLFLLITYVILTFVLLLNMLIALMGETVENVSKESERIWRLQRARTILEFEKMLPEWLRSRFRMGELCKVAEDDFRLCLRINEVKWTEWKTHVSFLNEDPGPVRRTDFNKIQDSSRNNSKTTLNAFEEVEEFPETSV
# Test: Whole cell patch clamp inhibition rate test on HEK-293 cells instantaneously expressing TRPV3
# Assay type: cell-based
# Conditions: HEK293; hTRPV3, single concentration 0.3 μM
# Description: In this study, HEK-293 cells instantaneously expressing TRPV3 were used for experimental detection.
# The operation steps are as follows:
# The cells were cultured in DMEM medium containing 10% fetal bovine serum at a temperature of 37° C. and a carbon dioxide concentration of 5%.
# Day 1: Cells were inoculated into a 6-well plate with 5×10^5 cells per well.
# Day 2: Transfection was performed using Lipofectamine 3000 transfection reagent, with a plasmid to transfection reagent ratio of 1 μg: 2 μL. The total amount of plasmid used per well was 3 μg. Specifically, two sterile centrifuge tubes were taken and 100 μL Opti-MEM was added to each tube. 6 μL Lipofectamine 3000 was added to one tube and mixed well; and 3 μg plasmid was added to another tube and mixed well, and then 6 μL P3000 was added and mixed well; Subsequently, the diluted plasmid DNA was added to diluted Lipofectamine 3000 and incubated at room temperature for 10-15 min. DNA liposome complex was dropped into the cells, shaked gently and mixed well, and then cultured in an incubator. The liquid was changed after 4 to 6 h.
# Day 3: The cells were digested and seeded into 24 well plates with pre-placed cover slides, with 8×10^3 cells per well.
# Day 4: Patch clamp testing was performed.
# The voltage stimulation protocol for recording TRPV3 current using whole cell patch clamp is as follows: after forming a whole cell seal, a cell membrane voltage clamp was set at −80 mV. Firstly, a membrane potential was recorded at 0 mV, and then a voltage was command to start from −100 mV, to depolarize in the form of Ramp to 100 mV within 100 ms, and finally restore to 0 mV. Data collection was repeated every 5 seconds to observe the inhibitory effect of pharmaceutical on peak current. Experimental data was collected by EPC 10 amplifier (HEKA) and stored in PatchMaster (HEKA) software.
# A microelectrode puller was used to pull the capillary glass tube into a recording electrode. The electrode filled with intracellular fluid was inserted into a microelectrode holder, and a microelectrode manipulator was operated under an inverted microscope to immerse the electrode in extracellular fluid and an electrode resistance (Rpip) was recorded. The electrode was brought into contact with the cell surface and a negative pressure suction was applied to form a high resistance seal (GΩ). At this point, a fast capacitance compensation was performed, and negative pressure was continued to apply in order to break the cell membrane, so that a whole cell recording mode was formed. Then, a slow capacitance compensation was performed and experimental parameters such as film capacitance (Cm) and series resistance (Rs) were recorded. No leakage compensation was provided.
# When the TRPV3 current recorded by the whole cell had stabilized, administration was started. Each pharmaceutical concentration acted for 5 minutes (or until the current stabilized) before detecting the next concentration. A plurality of concentrations was tested for each test compound. A cover glass covered with cells was placed in a recording bath under an inverted microscope. A blank control extracellular solution and a working fluid for the compound to be tested sequentially flowed through the recording bath from low concentration to high concentration using gravity perfusion to act on the cells. Liquid exchange was performed using a peristaltic pump during recording. The current detected by each cell in the extracellular fluid without the compound served as its own control group. Each concentration was independently tested twice using at least two cells. All electrophysiological tests were conducted at room temperature.
row,SMILES,inhibition at 0.3 µM [%]
1,CC(C)c1ccccc1-c1ccc2c(c1)[C@@H](O)C[C@]21CCN(C(=O)c2ccc(F)cn2)C1 [Example 27],< 25
2,CC(C)c1ccccc1-c1ccc2c(c1)[C@@H](O)C[C@@]21CCN(C(=O)c2ccc(F)cn2)C1 [Example 28],< 25
3,"O=C(c1csc(Cl)n1)N1CC[C@@]2(C[C@@H](O)c3cc(-c4ccccc4C4CC4)ccc32)C1 [Example 29, (2-chlorothiazol-4-yl)((1S,3R)-5-(2-cyclopropylphenyl)-3-hydroxy-2,3-dihydrospiro[indene-1,3′-pyrrolidine]-1′-yl)ketone]",70 to 100
4,"O=C(c1csc(Cl)n1)N1CC[C@]2(C[C@@H](O)c3cc(-c4ccccc4C4CC4)ccc32)C1 [Example 30, (2-chlorothiazol-4-yl)((1R,3R)-5-(2-cyclopropylphenyl)-3-hydroxy-2,3-dihydrospiro[indene-1,3′-pyrrolidine]-1′-yl)ketone]",< 25
5,"O=C(c1csc(Cl)n1)N1CC[C@@]2(C[C@H](O)c3cc(-c4ccccc4C4CC4)ccc32)C1 [Example 31, (2-chlorothiazol-4-yl)((1S,3S)-5-(2-cyclopropylphenyl)-3-hydroxy-2,3-dihydrospiro[indene-1,3′-pyrrolidine]-1′-yl)ketone]",< 25
6,"O=C(c1csc(Cl)n1)N1CC[C@]2(C[C@H](O)c3cc(-c4ccccc4C4CC4)ccc32)C1 [Example 32, (2-chlorothiazol-4-yl)((1R,3S)-5-(2-cyclopropylphenyl)-3-hydroxy-2,3-dihydrospiro[indene-1,3′-pyrrolidine]-1′-yl)ketone]",< 25
7,"CC(C)c1ccccc1-c1ccc2c(c1)[C@H](O)C[C@@]21CCN(C(=O)c2csc(Cl)n2)C1 [Example 33, (2-chlorothiazol-4-yl)((1S,3R)-3-hydroxy-5-(2-isopropylphenyl)-2,3-dihydrospiro[indene-1,3′-pyrrolidine]-1′-yl)ketone]",70 to 100
8,"CC(C)c1ccccc1-c1ccc2c(c1)[C@H](O)C[C@]21CCN(C(=O)c2csc(Cl)n2)C1 [Example 34, (2-chlorothiazol-4-yl)((1R,3R)-3-hydroxy-5-(2-isopropylphenyl)-2,3-dihydrospiro[indene-1,3′-pyrrolidine]-1′-yl)ketone]",< 25
9,"CC(C)c1ccccc1-c1ccc2c(c1)[C@@H](O)C[C@@]21CCN(C(=O)c2csc(Cl)n2)C1 [Example 35, (2-chlorothiazol-4-yl)((1S,3S)-3-hydroxy-5-(2-isopropylphenyl)-2,3-dihydrospiro[indene-1,3′-pyrrolidine]-1′-yl)ketone]",< 25
10,"CC(C)c1ccccc1-c1ccc2c(c1)[C@@H](O)C[C@]21CCN(C(=O)c2csc(Cl)n2)C1 [Example 36, (2-chlorothiazol-4-yl)((1R,3S)-3-hydroxy-5-(2-isopropylphenyl)-2,3-dihydrospiro[indene-1,3′-pyrrolidine]-1′-yl)ketone]",< 25
11,"O=C(c1cccc(C2CC2)n1)N1CC[C@@]2(C[C@@H](O)c3cc(-c4ccccc4C4CC4)ccc32)C1 [Example 37, ((1S,3R)-5-(2-cyclopropylphenyl)-3-hydroxy-2,3-dihydrospiro[indene-1,3′-pyrrolidine]-1′-yl)(6-cyclopropylpyridin-2-yl) ketone]",70 to 100
12,"O=C(c1cccc(C2CC2)n1)N1CC[C@]2(C[C@@H](O)c3cc(-c4ccccc4C4CC4)ccc32)C1 [Example 38, ((1R,3R)-5-(2-cyclopropylphenyl)-3-hydroxy-2,3-dihydrospiro[indene-1,3′-pyrrolidine]-1′-yl)(6-cyclopropylpyridin-2-yl) ketone]",< 25
13,"O=C(c1cccc(C2CC2)n1)N1CC[C@@]2(C[C@H](O)c3cc(-c4ccccc4C4CC4)ccc32)C1 [Example 39, ((1S,3S)-5-(2-cyclopropylphenyl)-3-hydroxy-2,3-dihydrospiro[indene-1,3′-pyrrolidine]-1′-yl)(6-cyclopropylpyridin-2-yl) ketone]",< 25
14,"O=C(c1cccc(C2CC2)n1)N1CC[C@]2(C[C@H](O)c3cc(-c4ccccc4C4CC4)ccc32)C1 [Example 40, ((1R,3S)-5-(2-cyclopropylphenyl)-3-hydroxy-2,3-dihydrospiro[indene-1,3′-pyrrolidine]-1′-yl)(6-cyclopropylpyridin-2-yl) ketone]",< 25
15,"CC(C)c1ccccc1-c1ccc2c(c1)[C@H](O)C[C@@]21CCN(C(=O)c2cccc(C3CC3)n2)C1 [Example 41, (6-cyclopropylpyridin-2-yl)((1S,3R)-3-hydroxy-5-(2-isopropylphenyl)-2,3-dihydrospiro[indene-1,3′-pyrrolidine]-1′-yl)ketone]",70 to 100
16,"CC(C)c1ccccc1-c1ccc2c(c1)[C@H](O)C[C@]21CCN(C(=O)c2cccc(C3CC3)n2)C1 [Example 42, (6-cyclopropylpyridin-2-yl)((1R,3R)-3-hydroxy-5-(2-isopropylphenyl)-2,3-dihydrospiro[indene-1,3′-pyrrolidine]-1′-yl)ketone]",< 25
17,"CC(C)c1ccccc1-c1ccc2c(c1)[C@@H](O)C[C@@]21CCN(C(=O)c2cccc(C3CC3)n2)C1 [Example 43, (6-cyclopropylpyridin-2-yl)((1S,3S)-3-hydroxy-5-(2-isopropylphenyl)-2,3-dihydrospiro[indene-1,3′-pyrrolidine]-1′-yl)ketone]",< 25
18,"CC(C)c1ccccc1-c1ccc2c(c1)[C@@H](O)C[C@]21CCN(C(=O)c2cccc(C3CC3)n2)C1 [Example 44, (6-cyclopropylpyridin-2-yl)((1R,3S)-3-hydroxy-5-(2-isopropylphenyl)-2,3-dihydrospiro[indene-1,3′-pyrrolidine]-1′-yl)ketone]",< 25
19,"O=C(c1ccc(F)cn1)N1CCC2(C[C@@H](O)c3cc(-c4ccccc4C4CC4)ccc32)C1 (stereo partly drawn) [Example 45, ((3R)-5-(2-cyclopropylphenyl)-3-hydroxy-2,3-dihydrospiro[indene-1,3′-pyrrolidine]-1′-yl)(5-fluoropyridin-2-yl) ketone]",70 to 100
20,"O=C(c1ccc(F)cn1)N1CCC2(C[C@H](O)c3cc(-c4ccccc4C4CC4)ccc32)C1 (stereo partly drawn) [Example 46, ((3S)-5-(2-cyclopropylphenyl)-3-hydroxy-2,3-dihydrospiro[indene-1,3′-pyrrolidine]-1′-yl)(5-fluoropyridin-2-yl) ketone]",< 25
21,"COCc1cccc(C(=O)N2CCC3(CC(O)c4cc(-c5ccccc5C5CC5)ccc43)C2)n1 (stereo not shown) [Example 47, (5-(2-cyclopropylphenyl)-3-hydroxy-2,3-dihydrospiro[indene-1,3′-pyrrolidine]-1′-yl)(6-(methoxymethyl)pyridin-2-yl) ketone]",< 25
22,"CNc1cncc(C(=O)N2CCC3(CC(O)c4cc(-c5ccccc5C5CC5)ccc43)C2)n1 (stereo not shown) [Example 48, (5-(2-cyclopropylphenyl)-3-hydroxy-2,3-dihydrospiro[indene-1,3′-pyrrolidine]-1′-yl)(6-(methylamino)pyrazin-2-yl) ketone]",70 to 100
